# Experimental data from US20150174209A1, “INSULIN-PRAMLINTIDE COMPOSITIONS AND METHODS FOR MAKING AND USING THEM” (AMYLIN PHARMACEUTICALS. LLC, priority 2012, published 2015).
# Tests used:
# healthy subjects = assay: Glucose and C-peptide minimal models and minimal model of gastrointestinal absorption on aggregated Woerle data; set-up: species or system human
# Description: The data published in Woerle et al. (December, 2008) Diabetes Care 31(12): 2325-2331, where a dual tracer approach was used in healthy subjects to estimate the rate of appearance of glucose during the meal and hepatic glucose production during placebo/pramlintide were used in an aggregated fashion (individual data not available, FIG. 13A). […] Subsequently, the minimal model of gastrointestinal absorption (FIG. 37) was used to quantify the changes of the rate of appearance of ingested glucose due to pramlintide. […] This finding was incorporated into the Healthy State Simulator and predictions were successfully tested against Woerle et al data FIG. 38. We also successfully tested the prediction of 2 h postprandial glucose of the Type 1 Diabetes Simulator (illustrated in FIG. 18) (incorporating the new kmax) against the data by Kovatchev B P, et al., Pramlintide reduces the risks associated with glucose variability in type 1 diabetes. Diabetes Technol Ther. 2008 October; 10(5):391-6. The new model was finally incorporated into our model predictive control algorithm and in silico experiment on the Type 1 diabetes.
# [1] = tested on: patients with type 1 diabetes mellitus; conditions: in vivo, sc; cited from earlier work
# type 1 diabetic subjects = assay: Identification of the gastro-intestinal tract (oral glucose absorption) model on Ra meal data of the Woerle T1D database; set-up: species or system human; conditions: 30 μg pramlintide s.c. with meal containing 50 g glucose, 15 type 1 diabetic subjects
# Experimental: The database was made up of 15 type 1 diabetic subjects (8 men and 7 women, 37±2 years of age, body weight 76±3 kg) (this is a database for each individual patient participating in the study published in Woerle et al. (December, 2008) Diabetes Care 31(12): 2325-2331, in which pramlintide was given to TI patients and labeled glucose appearance from meal to blood was measured; Woerle reported the effect of pramlintide on gastric emptying and thus glucose appearance in the blood after a meal in patients with type 1 diabetes). “Ra meal data” means the “glucose rate of appearance (Ra) of ingested glucose”; “Ra meal” refers to measurement in response to a meal (ingested), versus after say an intraduodenal injection of glucose.
# Subjects were studied on 2 occasions: hyperglycemia with (PRAM) and without (PBO) 30 μg of pramlintide (Amylin Pharmaceuticals, San Diego, Calif.), injected subcutaneously in the lower abdominal wall with the standardized meal containing 50 g of glucose. Over the initial 90 min of the postprandial period, blood samples were taken at 15 min intervals and thereafter at 30-min intervals until completion of the experiment at 330 min.
# The model has been numerically identified on placebo Ra meal data using nonlinear weighted least-squares estimator. Identification on pramlintide Ra meal data have required the use of Bayesian estimator in order to achieve a precise estimates of model parameters.
# Identification of the gastro-intestinal tract model on Woerle Ra meal data has provided individual parameters estimates for the 15 T1D subjects in presence or absence of pramlintide. Then individual variation for each parameter has been calculated as: […]
# We reduced the standard deviations of the variation of the parameters to the 30% of their values due to the small number of subjects available:
# Then 100 virtual parameters variations were generated from the distribution: […]
# [2] = cited from earlier work
# [3] = pH 2-3; 4C; cited from earlier work
# [4] = Chemical stability of pramlintide and human insulin co-formulated in SYMLIN placebo buffer pH 4.0 (RP-HPLC purity; FIGS. 35, 36); conditions: for stability in co-formulation: 25 degrees Centigrade, SYMLIN placebo buffer pH 4.0, 13 week study
# Experimental: Purity was determined via RP-HPLC and is normalized to time=0 purity.
Compound,effect on insulin sensitivity and beta-cell function (healthy subjects; glucose and C-peptide minimal models),decrease of parameter kmax (maximum gastric emptying) (healthy subjects; minimal model of gastrointestinal absorption),effect of mixing with short- or long-acting insulin in the same syringe on pharmacodynamics of glucose and pharmacokinetics of insulin or pramlintide [1],"b (model parameter estimate, mean) (type 1 diabetic subjects)","c (model parameter estimate, mean) (type 1 diabetic subjects)","kabs (model parameter estimate, mean) (type 1 diabetic subjects)","kmin (model parameter estimate, mean) (type 1 diabetic subjects)","kmax (model parameter estimate, mean) (type 1 diabetic subjects; Bayesian estimator)",absorption after subcutaneous injection [2],duration of action ([2]; subcutaneous injection),formation of monodesamido-(A21)-insulin [3],"purity loss during storage ([4]; 25 degrees C, insulin in co-formulations)",stability in co-formulation [4],stability in co-formulation ([4]; listed as insulin)
CC[C@H](C)[C@H](NC(=O)[C@@H]1CCCN1C(=O)CNC(=O)[C@H](Cc1ccccc1)NC(=O)[C@H](CC(N)=O)NC(=O)[C@H](CC(N)=O)NC(=O)[C@H](CO)NC(=O)[C@H](CO)NC(=O)[C@H](Cc1c[nH]cn1)NC(=O)[C@@H](NC(=O)[C@H](CC(C)C)NC(=O)[C@H](Cc1ccccc1)NC(=O)[C@H](CC(N)=O)NC(=O)[C@H](C)NC(=O)[C@H](CC(C)C)NC(=O)[C@H](CCCNC(=N)N)NC(=O)[C@H](CCC(N)=O)NC(=O)[C@@H](NC(=O)[C@H](C)NC(=O)[C@@H]1CSSC[C@H](NC(=O)[C@@H](N)CCCCN)C(=O)N[C@@H](CC(N)=O)C(=O)N[C@@H]([C@@H](C)O)C(=O)N[C@@H](C)C(=O)N[C@@H]([C@@H](C)O)C(=O)N1)[C@@H](C)O)C(C)C)C(=O)N[C@@H](CC(C)C)C(=O)N1CCC[C@H]1C(=O)N1CCC[C@H]1C(=O)N[C@H](C(=O)N[C@@H](CC(N)=O)C(=O)N[C@H](C(=O)NCC(=O)N[C@@H](CO)C(=O)N[C@@H](CC(N)=O)C(=O)N[C@H](C(=O)N[C@@H](Cc1ccc(O)cc1)C(N)=O)[C@@H](C)O)C(C)C)[C@@H](C)O [pramlintide],no effect,⅔,did not affect,0.985,0.537,0.020,0.005,0.041,,,,,,
human insulin: regular human hormone with 21 amino acid A chain (SEQ ID NO:2) and 30 amino acid B chain (SEQ ID NO:3),,,,,,,,,15 to 60 min,5 to 9 h,1-2 % per month,40%,rapidly degrades,unacceptable degradation
